Measured values reported in patent publication US5326882A, “Chemiluminescent 3-(substituted Adamant-2'-Ylidene) 1,2-dioxetanes” (Tropix, Inc., priority 1992, dated 1994).

Key:
[1] = target: T1, biotinylated pBR322-35mer detected with Avidix-AP (Bos taurus, UniProt P19111); assay: Half-time to maximum chemiluminescence, biotinylated DNA on membranes (Example XXVIII); settings: 12.5 pg DNA, […] dioxetane in 0.1 M DEA, pH 10.0
T1 construct: purchased Tropix, Inc
Protocol: The performance of AMPPD and Cl-AMPPD on a nylon membrane was compared as follows: 12.5 picograms of biotinylated-pBR322-(35 mer) in 1 μL was spotted onto dry nylon membrane and crosslinked to the membrane with UV light. The membrane subsequently wetted with 1×SSC buffer, incubated with 0.2% casein, 0.1% Tween-20 in phosphate buffered saline (PBS) for 1 hour at room temperature, washed 4 times with 0.3% Tween-20 in PBS, washed twice in Substrate Buffer (0.1 M diethanolamine, 1 mM MgCl2, pH 10.0), and incubated for 5 minutes in 0.25 mM dioxetane in Substrate Buffer. In this fashion, two membranes: one incubated with AMPPD and the second with Cl-AMPPD, were generated. The membranes were then sealed in plastic, attached to the outside of a 12×75 mm glass test tube, and inserted into Turner Model 20-E luminometer equipped with a side-mounted photomultiplier detector and thermally equilibrated to 30° C. The chemiluminescence intensity was then monitored for 20-24 hours.
The half-times to the maximum chemiluminescence intensity obtained with AMPPD and Cl-AMPPD on PVDF and nylon membranes were calculated from data collected as described in Example XXVII, for the nylon membrane. For PVDF membrane, the revised protocol included the second Substrate Buffer wash followed by the membrane incubation for 5 minutes at room temperature in the Tropix NitroBlock™ reagent and a subsequent wash with Substrate Buffer prior to the dioxetane substrates addition. The half-times to the maximum chemiluminescent signal were calculated from the a plot of the logarithm (maximum chnemiluminescent signal minus signal at each time point) as a function of time and is shown in Table 9.
12.5 pg of biotinylated pBR322-35mer was detected with Avidix-AP and 0.24 mM dioxetane in 0.1 M DEA, pH 10.0.

[2] = target: alkaline phosphatase (Bos taurus, UniProt P19111); assay: Detection limits for alkaline phosphatase, Berthold LB952T (Example XXII); assay type: biochemical; settings: twice background
Protocol: The detection means for alkaline phosphatase with different chemiluminescent 1,2-dioxetane substrates were determined as follows: Duplicates of serial dilutions (1 to 3) of alkaline phosphates were incubated at room temperature with 0.4 mM dioxetane in 0.1 M diethanolamine, 1 mM MgCl2, pH 10.0, containing 1 mg/ml of either of the polymeric enhancers Enhancer 1 or Enhancer 2, in […].
Following either a 5 or a 20 minute incubation with a substrate, the chemiluminescence intensity was measured as a 5 second integrated Relative Light Units (RLU) and plotted as in FIG. 10. […] The alkaline phosphatase concentrations at twice background were used as the detection limits in Table 5.

[3] = tested on: alkaline phosphatase ("AP"); settings: cited from earlier work
[4] = target: T2, avidin-alkaline phosphatase conjugate (Bos taurus, UniProt P19111); assay: Dot blot of biotinylated pBr 322 35-mer on nylon membrane, instant film (Example XIV); settings: 0.25 mM, pH 10, nylon membrane, FIG. 11
T2 construct: purchased Sigma, Inc., St. Louis, Mo
Protocol: A strip of neutral BIODYNE A nylon membrane (Pall Corporation, Glen Cove, N.Y.) was dotted twice (side-by-side) with the following concentrations of biotinylated pBr 322 35-mer oligonucleotide probe (Synthetic Genetics, San Diego, Calif.):
Next, the membrane was blocked in 0.2% casein/0.1% Tween 20 detergent in aqueous phosphate buffered saline solution (PBS) for 1 hour, following which 1/5000 diluted avidin-alkaline phosphatase conjugate (Sigma, Inc., St. Louis, Mo.) in 0.2% casein in PBS was added. The membrane was then incubated for 30 minutes, washed twice (for 5 minutes each time) in 0.2% casein/0.1% Tween 20 detergent in PBS, washed four times (for 5 minutes each time) in 0.3% Tween 20 detergent in PBS, and twice (for 5 minutes each time) in aqueous 0.1M diethanolamine containing 1 mM magnesium chloride, pH 10.0.
The membrane was then cut up the middle to give two strips, each bearing one set of dots. One of the strips was incubated for 5 minutes in aqueous AMPPD solution (0.25 mM in 0.1M diethanolamine containing 1 mM magnesium chloride, pH 10), the other for 5 minutes in the corresponding chloroadamant-2'-ylidene compound (0.25 mM in the same buffer). The two strips were then placed in camera luminometers and exposed on Polaroid Type 612 instant black and white film.

[5] = PVDF membrane treated with NitroBlock

alkaline phosphatase, sequence (P19111 20-506 limits assumed): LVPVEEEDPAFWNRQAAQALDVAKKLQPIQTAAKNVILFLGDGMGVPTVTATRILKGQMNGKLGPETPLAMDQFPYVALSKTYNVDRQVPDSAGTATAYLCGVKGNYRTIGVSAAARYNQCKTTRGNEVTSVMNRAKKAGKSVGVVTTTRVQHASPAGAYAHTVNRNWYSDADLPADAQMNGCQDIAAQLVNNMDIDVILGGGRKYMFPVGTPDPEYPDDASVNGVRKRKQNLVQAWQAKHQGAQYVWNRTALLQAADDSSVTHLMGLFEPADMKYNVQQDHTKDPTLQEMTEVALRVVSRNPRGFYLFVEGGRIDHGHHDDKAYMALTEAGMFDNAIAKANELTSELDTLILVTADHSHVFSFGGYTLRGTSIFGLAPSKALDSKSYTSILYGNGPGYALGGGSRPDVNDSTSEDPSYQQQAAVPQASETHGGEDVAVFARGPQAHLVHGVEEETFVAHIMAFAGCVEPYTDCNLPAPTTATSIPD
T1 sequence (P19111 20-506 limits assumed): as above
T2 sequence (P19111 20-506 limits assumed): as above
T2 sequence (P02701 25-152 partner): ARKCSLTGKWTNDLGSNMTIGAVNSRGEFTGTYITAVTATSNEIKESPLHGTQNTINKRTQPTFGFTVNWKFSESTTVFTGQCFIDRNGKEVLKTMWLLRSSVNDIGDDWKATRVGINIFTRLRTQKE

| Compound | HALF-TIME TO MAXIMUM CHEMILUMINESCENCE ([1]; Nylon membrane) [min] | HALF-TIME TO MAXIMUM CHEMILUMINESCENCE [1, 5] [min] | Detection limit for alkaline phosphatase ([2]; ENHANCER 1, 5 MIN) [femtomoles/liter] | Detection limit for alkaline phosphatase ([2]; ENHANCER 1, 20 MIN) [femtomoles/liter] | Detection limit for alkaline phosphatase ([2]; ENHANCER 2, 5 MIN) [femtomoles/liter] | Detection limit for alkaline phosphatase ([2]; ENHANCER 2, 20 MIN) [femtomoles/liter] | moles whose phosphoryloxy group is cleaved by a single mole of alkaline phosphatase per second [3] | chemiluminescence intensity as compared to AMPPD [4] |
| --- | --- | --- | --- | --- | --- | --- | --- | --- |
| COC1(c2cccc(OP(=O)(O)O)c2)OOC12C1CC3CC(C1)CC2C3 (centres unmarked) [AMPPD, 3-(4-methoxyspiro[1,2-dioxetane-3,2'-triyclo[3.3.1.1^3,7]decan]-4-yl)phenyl phosphate, reference compound] | 99.83 | 49.51 | 4.0 | 1.4 | 3.5 | 1.1 | 1,000-5,000 moles per second |  |
| COC1(c2cccc(OP(=O)(O)O)c2)OOC12C1CC3CC2CC(Cl)(C3)C1 (centres unmarked) [Cl-AMPPD, disodium 3-(4-methoxyspiro-[1,2-dioxetane-3,2'-(5'-chloro)tricyclo[3.3.1.1^3,7]decan]-4-yl) phenyl phosphate] | 47.48 | 14.20 | 1.0 | 0.6 | 0.8 | 0.4 |  | improved chemiluminescence intensity |
